This note sets out measurements from patent US7071197B2, “N,N-disubstituted diazocycloalkanes” (Recordati S.A., priority 2002, dated 2006).

Assay [1] has as its target T1, human cloned 5-HT1A receptors (Homo sapiens, UniProt P08908).
T1 construct: expressed in transfected cells
T1 sequence (P08908 1-422): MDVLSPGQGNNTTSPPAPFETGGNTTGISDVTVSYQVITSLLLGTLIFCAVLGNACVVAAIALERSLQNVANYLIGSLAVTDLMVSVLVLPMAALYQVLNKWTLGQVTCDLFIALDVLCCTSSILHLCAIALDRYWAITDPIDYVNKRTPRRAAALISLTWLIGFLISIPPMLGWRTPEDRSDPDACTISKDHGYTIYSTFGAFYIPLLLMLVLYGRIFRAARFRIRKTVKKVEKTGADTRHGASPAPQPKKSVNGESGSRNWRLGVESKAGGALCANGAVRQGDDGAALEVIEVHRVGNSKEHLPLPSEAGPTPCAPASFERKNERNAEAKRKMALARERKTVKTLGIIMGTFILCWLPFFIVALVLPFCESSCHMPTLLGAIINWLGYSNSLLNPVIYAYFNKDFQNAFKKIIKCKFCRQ
Put plainly: [35S]GTPγS binding, membranes of HeLa cells transfected with human cloned 5-HT1A receptors. The format is biochemical. Particulars: 5-HT maximal stimulation taken as 100%. Here is the method: A genomic clone coding for the human 5HT1A-serotonergic receptor was stably transfected in a human cell line (HeLa). HeLa cells were grown as monolayers in Dulbecco's modified Eagle medium (DMEM), containing 10% fetal bovine serum, gentamycin (0.1 mg/ml) and 5% carbon dioxide, at 37° C. The cells were detached from the growth flask at 95% confluence by a cell scraper and were lysed in cold 5 mM Tris and 5 mM EDTA buffer (pH 7.4). The homogenates were centrifuged at 40000×g×20 minutes and the pellets were resuspended in a small volume of cold 5 mM Tris and 5 mM EDTA buffer (pH 7.4) and immediately frozen and stored at −70° C. until use.
[^35S]GTPγS binding: on the experimental day, cell membranes from HeLa cells transfected with human cloned 5-HT1A receptors were resuspended in buffer pH 7.4 containing 20 mM HEPES, 3 mM MgCl2 and 120 mM NaCl (Stanton, J. A.; Beer, M. S. Eur. J. Pharmacol. 320, 267–275, 1997). The membranes were incubated with 10 μM GDP and decreasing concentrations of test drugs (from 100 μM to 0.1 nM) or decreasing concentrations of 5-HT (from 100 μM to 0.1 nM, reference curve) for 20 min at 30° C. in a final volume of about 0.25 ml. [^35S]GTPγS ([…] in 10 μl) was added to samples and incubated for a further 30 min at 30° C. Non-specific binding was determined in the presence of 10 μM GTPγS. The incubation was stopped by addition of ice-cold HEPES buffer and rapid filtration on Unifilter GF/C filters, using a Filtermate cell harvester (Packard). The filters were washed four times with total 1.2 ml of same buffer. Radioactivity was counted by liquid scintillation spectrometry with efficiency >90% (TopCount Packard). Stimulation of [^35S]GTPγS binding induced by the compounds tested was espressed as % increase in binding above basal value, being the maximal stimulation observed with 5-HT taken as 100%. The concentration-response curve of the agonistic activity was analyzed by non linear fitting program (De Lean et al., Am. J. Physiol. 235, E97-E102, 1978).
A stimulation of [^35S]GTPγS binding represented the functional correlate of the binding of an agonist compound at the 5-HT1A receptors. Stimulation induced by the endogenous ligand 5-HT was considered the maximal stimulation attainable.
Background: GTPγS resists hydrolysis and so accumulates on activated G proteins.

The next assay deals with T2, human α1a-adrenoceptor (Homo sapiens, UniProt P35348).
T2 construct: expressed in transfected cells
T2 sequence (P35348 1-466): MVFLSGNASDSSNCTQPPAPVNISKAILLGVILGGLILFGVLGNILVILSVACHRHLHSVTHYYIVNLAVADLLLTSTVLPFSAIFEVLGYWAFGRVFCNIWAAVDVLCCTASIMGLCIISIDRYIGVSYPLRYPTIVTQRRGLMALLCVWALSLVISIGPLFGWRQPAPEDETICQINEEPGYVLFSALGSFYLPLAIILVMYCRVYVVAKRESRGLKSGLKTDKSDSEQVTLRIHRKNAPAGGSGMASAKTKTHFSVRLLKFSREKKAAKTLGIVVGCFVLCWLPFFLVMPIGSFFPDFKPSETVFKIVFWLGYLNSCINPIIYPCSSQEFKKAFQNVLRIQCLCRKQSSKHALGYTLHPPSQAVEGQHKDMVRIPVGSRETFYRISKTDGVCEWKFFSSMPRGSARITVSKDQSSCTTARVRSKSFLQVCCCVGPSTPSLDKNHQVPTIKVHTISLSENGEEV
The assay can be described thus: [3H]prazosin binding to cloned human α1-adrenoceptor subtypes (α1a). Particulars: for Ki: [3H]prazosin, CHO cell membranes, read-out: Binding affinity (Ki, nM) α1a; for α1a/5-HT1A: selectivity: ratio of Ki at α1a and Ki at 5-HT1A. The method, then:
Binding to cloned human α1-adrenoceptor subtypes was performed in membranes from CHO cells (chinese hamster ovary cells) transfected by electroporation with DNA expressing the gene encoding each α1-adrenoceptor subtype. Cloning and stable expression of the human α1-adrenoceptor gene was performed as previously described (Testa et al. Pharmacol. Comm., 6: 79–86,1995).
CHO cells were grown in suspension in Iscove's modified Dulbecco's medium, supplemented with 10% fetal calf serum and gentamicin (50 μg/ml), at 37° C. in 7% CO2 in an humidified incubator. Cells were collected by centrifugation, lised in ice-cold Tris 5 mM and EDTA 5 mM buffer (pH 7.4) and gently homogenised. Homogenates were centrifuged at 40000×g×20 min and pellets were resuspended in a small volume of ice-cold Tris 5 mM and EDTA 5 mM buffer (pH 7.4) and immediately frozen and stored at −80° C. until use.
CHO cell membranes were resuspended and incubated in 50 mM Tris, pH 7.4, with 0.2 nM [^3H]prazosin, in a final volume of 1.02 ml for 30 min at 25° C., in absence or presence of competing drugs. Non-specific binding was determined in the presence of 10 μM phentolamine. The incubation was stopped by rapid filtration through 0.2% polyethyleneimine pretreated Schleicher & Schuell GF52 filters using a Tomtec (PerkinElmer) cell harvester. The filters were washed with 3×1 ml of ice-cold Tris buffer, dried and the radioactivity was measured in a Betaplate (Wallac) liquid scintillation counter.
The inhibition of specific binding by the compounds was analysed to estimate the IC50 value by the non-linear curve-fitting program Allfit (De Lean et al. Am. J. Physiol. 235, E97-E102, 1978). The IC50 value is converted to an affinity constant (Ki) by the equation of Cheng & Prusoff (Biochem. Pharmacol. 22: 3099–3108, 1973).

With `COc1ccccc1N1CCN(CC[C@H](c2ccccc2F)[C@@H](O)C2CCCCC2)CC1` [Ex. 1Y, 1-[(3R,4S)-4-cyclohexyl-4-hydroxy-3-(2-fluorophenyl)-butyl]-4-(2-methoxyphenyl)-piperazine], the “Functional effect ([35S]GTPγS binding)” value in assay [1] is “Neutral antagonist”. In addition, on human α1a-adrenoceptor, the inhibitory constant (Ki) is 24 nM and the α1a/5-HT1A amounted to 65.
Regarding `COc1ccccc1N1CCN(CC[C@H](c2ccccc2)[C@@H](O)C2CCCCC2)CC1` (racemic) [Ex. 5, 1-[(RS,SR)-4-Cyclohexyl-4-hydroxy-3-phenyl-butyl]-4-(2-methoxyphenyl)-piperazine, reference compound], in assay [1], the “Functional effect ([35S]GTPγS binding)” value is “Neutral antagonist”. At human α1a-adrenoceptor, the inhibitory constant (Ki) amounted to 51 nM and the α1a/5-HT1A was 78.
For the compound `COc1ccccc1N1CCN(CC[C@H](c2ccccc2F)[C@H](O)C2CCCCC2)CC1` [Ex. 2X, 1-[(3R,4R)-4-cyclohexyl-4-hydroxy-3-(2-fluorophenyl)-butyl]-4-(2-methoxyphenyl)-piperazine], the “Functional effect ([35S]GTPγS binding)” value in assay [1] was “Neutral antagonist”. In addition, at human α1a-adrenoceptor, the Ki amounted to 44 nM and the α1a/5-HT1A worked out at 183.
As for `COc1ccccc1N1CCN(CC[C@@H](c2ccccc2F)[C@H](O)C2CCCCC2)CC1` (racemic) [Ex. 1, 1-[(SR-RS)-4-cyclohexyl-4-hydroxy-3-(2-fluorophenyl)-butyl]-4-(2-methoxyphenyl)-piperazine], the “Functional effect ([35S]GTPγS binding)” value in assay [1] was “Neutral antagonist”. Besides, at human α1a-adrenoceptor, the Ki worked out at 18 nM and the α1a/5-HT1A came to 138.

In general, Ki refers to a dissociation constant, usually derived from enzyme kinetics or from competition with a known ligand.
